Source: US20100286264A1, “COMPOSITION COMPRISING A NITROOXYDERIVATIVE OF ACETAMINOPHEN AND A ANTICONVULSANT DRUG FOR THE TREATMENT OF NEUROPATHIC PAIN” (Nicox S.A., priority 2008, published 2010)

Test system: spinal cord neuronal responses from adult male Wistar rats with mononeuropathy
Test: Recording of single motor units: nociceptive responses in rats with mononeuropathy (partial sciatic nerve ligation)
Format: in vivo, rat
Conditions: for Nociceptive responses to noxious mechanical stimulation: i.v., ± S.E.M.
Description: The application routes were intravenous (i.v.). The enhancement of the antinociception was studied by isobolographic analysis. Mononeuropathy was induced under anesthetic regime, seven days before the experiment, using the partial ligation of the sciatic nerve technique. The development of hyperalgesia was assessed by behavioral experiments, studying withdrawal reflex responses evoked by mechanical and thermal stimulation.

Row | Compound | Nociceptive responses to noxious mechanical stimulation (compound 1 15 μmol/kg alone (gabapentin 0)) | Nociceptive responses to noxious mechanical stimulation (compound 1 30 μmol/kg alone (gabapentin 0)) | Nociceptive responses to noxious mechanical stimulation (compound 1 60 μmol/kg alone (gabapentin 0)) | Nociceptive responses to noxious mechanical stimulation (compound 1 120 μmol/kg alone (gabapentin 0)) | Nociceptive responses to noxious mechanical stimulation (compound 1 240 μmol/kg alone (gabapentin 0)) | Effect on nociceptive responses evoked by noxious mechanical and electrical stimulation (intravenous, mechanical and electrical stimulation) | ID50 for noxious mechanical stimulation (intravenous, rats with mononeuropathy, noxious mechanical stimulation) [µmol/kg] | Nociceptive responses to noxious mechanical stimulation (gabapentin 20 μmol/kg alone) | Nociceptive responses to noxious mechanical stimulation (gabapentin 40 μmol/kg alone) | Nociceptive responses to noxious mechanical stimulation (gabapentin 80 μmol/kg alone) | Nociceptive responses to noxious mechanical stimulation (gabapentin 160 μmol/kg alone) | Nociceptive responses to noxious mechanical stimulation (gabapentin 320 μmol/kg alone)
1 | CC(=O)Nc1ccc(OC(=O)CCCO[N+](=O)[O-])cc1 [Compound 1, 4-(nitrooxy)butanoic acid 4-(N-acetylamino)phenyl ester] | 98 ± 6 percentage of vehicle values | 95 ± 2 percentage of vehicle values | 91 ± 4.5 percentage of vehicle values | 86 ± 5 percentage of vehicle values | 75 ± 9 percentage of vehicle values | dose-dependently reduced the nociceptive responses | 542 ± 5 |  |  |  |  | 
2 | NCC1(CC(=O)O)CCCCC1 [Gabapentin, reference compound] |  |  |  |  |  |  |  | 100 ± 5 percentage of vehicle values | 95 ± 1 percentage of vehicle values | 95 ± 2 percentage of vehicle values | 79 ± 3 percentage of vehicle values | 59 ± 6 percentage of vehicle values
